Article PMC11641365, “Evaluation of In Vitro Biological Activity of Flavanone/Chromanone Derivatives: Molecular Analysis of Anticancer Mechanisms in Colorectal Cancer” (International Journal of Molecular Sciences, 2024)
Read-outs that look alike come from different tables or passages of the source.

Experiments:
HT-29 [1] = assay: Cell cycle analysis via flow cytometry (propidium iodide); format: cell-based, human; details: compound at IC50, 24 h, vs control
Protocol: The most commonly used fluorescent dyes for cell cycle analysis are fluorochromes that penetrate the cell membrane into the interior of permeabilized cells and bind stoichiometrically to DNA via intercalation, e.g., DAPI, propidium iodide (PI). The analysis is performed on cells fixed in ethanol. In this work, the cell cycle analysis was performed using the method described by Darzynkiewicz and Juan.
Cells (10 × 10^3) were seeded in 35 mm dishes and cultured in the medium for 24 h to attain the logarithmic growth phase. […] Subsequently, cells were trypsinized and centrifuged for 10 min at 400× g at 4 °C. The cell suspension in 100 μL of PBS was fixed in 1 mL of 70% ethanol (−20 °C) and stored at this temperature until analysis. Immediately before analysis, the ethanol-fixed cell suspension was centrifuged at 10,000 rpm for 10 min at 4 °C. The pellet was washed with cold (4 °C) PBS to remove residual ethanol, and the cell suspension was centrifuged again under the same conditions. A volume of 300 μL of PBS containing 4 mg/mL propidium iodide (final concentration 75 μM) and 1 mg/mL RNAse A (final concentration 20 μg/mL) was added to the cell pellet and incubated for at least 30 min at 37 °C in the dark. Stained cells were analyzed using a flow cytometer (Becton Dickinson, Franklin Lakes, NJ, USA), counting 10,000 cells in each sample. Data were analyzed using FlowJo 10.10 software (FlowJo, Williamson Way Ashland, OR, USA).

[2] = system: human colon cancer cell lines: HCT 116, SW620, LoVo, Caco-2, and HT-29; assay: MTT cell viability assay, statements across the panel; format: cell-based; details: range over the cancer cell lines, read-out: IC50 range against colon cancer cell lines
Protocol: The cytotoxic activity of the 3-benzylideneflavanones, 3-benzylidenechromanones derivatives (compounds 1, 2, 3, 4, 5) and 5′-(3-methoxyphenyl)-2-phenyl-4′,5′-dihydro-4H-spiro[chromano-3,3′-pirazol]-4-one (compound 3a) was evaluated using the MTT assay (4,5-dimethylthiazol-2-yl)-2,5-diphenyltetrazoliumbromide), a colorimetric method that quantifies cell viability. […] These IC50 values were subsequently used for all experiments investigating the anticancer activity of the flavanone/chromanone derivatives in this study.
Cell viability was determined using the metabolic microplate spectrophotometric assay with Methylthiazolyl diphenyltetrazolium bromide (MTT) (Sigma-Aldrich; St. Louis, MO, USA). The MTT method belongs to metabolic tests for determining cell viability and consists of measuring the absorbance of a violet solution of formazan, a product of the reduction of a water-soluble yellow MTT by oxidoreductive enzymes (mainly mitochondrial succinate dehydrogenase) of living cells. The amount of the reaction product (water-insoluble formazan crystals) is proportional to the number of living and metabolically active cells in the sample. In the case of damaged or dead cells, formazan is formed in smaller amounts, or it is not formed.
The appropriate number of cells for a given cell line (6–8 × 10^3 cells/mL) were seeded onto colorless, sterile 96-well microplates (Nunc, Roskilde, Denmark) in the number appropriate for a given cell line. After 24 h of culture, various concentrations of the studied compounds (10^−7–10^−5 M) freshly prepared in DMSO (final concentration DMS < 0.1%) and diluted with complete culture medium were added and incubated in a CO2 incubator for 24 h. After this time, the medium was removed; the cell monolayer was washed twice with sterile PBS solution; and fresh culture medium was added to the microplate wells. After 48 h of cell culture, the MTT test was performed. A volume of 50 μL of tetrazolium salt solution (final concentration 0.05 mg/mL) was added to each microplate well. The microplate was placed for 3–4 h (depending on the cell line) in a CO2 incubator. After incubation, 100 μL of DMSO was added to the wells of the microplate to dissolve the purple formazan crystals formed in the living cell environment. The absorbance of the formazan solution, after gentle mixing, was read at a wavelength of λ = 580 nm and a reference wavelength of λ = 720 nm (Biotek Power Wave HT, Biotek Instruments, Winooski, VT, USA). The percentage of living cells was calculated by comparing the absorbance value of the tested samples with the absorbance value of the control (cells not treated with compounds). The absorbance of the control was taken as 100%. […] Moreover, cisplatin (Sigma-Aldrich, St. Louis, MO, USA) was used as a reference compound, and identical incubation conditions were used as described above.

HT-29 [3] = assay: Autophagy induction, monodansylcadaverine (MDC) fluorescence; format: cell-based, human; details: compound at IC50, 24 h, vs control
Protocol: Autophagy induction in cells treated with the tested drugs was determined by measuring Monodansylcadaverine (MDC; Sigma-Aldrich; St. Louis, MO, USA) fluorescence according to a modified method described by Vázquez. […] In the cell, MDC accumulates in lipid-rich cell membranes. It has been shown that MDC can be used as a dye for detecting autophagy, as it accumulates in autophagolysosomes as a result of interaction with membrane lipids.
Cells were seeded in black 96-well fluorometric microplates at a density of 10 × 10^3 cells/mL. […] Following compound incubation, the medium was removed, and the cell monolayers were washed twice with HBSS (140 mM NaCl, 5 mM KCl, 0.8 mM MgCl2, 1.8 mM CaCl2, 1 mM Na2HPO4, 10 mM HEPES, and 1% glucose). A solution of MDC at a final concentration of 50 μM was added to each well and incubated in a CO2 cell culture incubator at 37 °C for 15 min. After incubation with MDC, the probe was removed, and the cells were lysed with 50 μL of lysis buffer (10 mM TRIS-HCl; pH 8 containing 0.1% Triton X-100). After lysis, fluorescence was measured at an excitation wavelength of λex = 390 nm and an emission wavelength of λem = 460 nm using a Perkin-Elmer LS-5B spectrofluorometer (Waltham, MA, USA). In order to normalize the number of cells in individual samples, the amount of DNA was determined by adding 50 μL of EB (final concentration 0.2 mM) to each well after measuring the MCB fluorescence and measuring the EB fluorescence at an excitation wavelength of λex = 530 nm and an emission wavelength of λem = 590 nm. The results were calculated as the ratio of MDC fluorescence to EB fluorescence.

O=C1/C(=C/c2ccccc2)COc2ccccc21 [Compound 1]
Increase in the G2/M phase cell percentage (HT-29 [1]): 25%
IC50 ([2]; Homo sapiens): 8 to 30 µM
IC50 [2]: 8 to 20 µM
Increase in MDC fluorescence intensity (autophagy) (HT-29 [3]): 25%

COc1cccc(/C=C2/C(=O)c3ccccc3OC2c2ccccc2)c1 (centres unmarked) [Compound 3]
IC50 ([2]; Homo sapiens): 8 to 30 µM

O=C1/C(=C/c2ccccc2)C(c2ccccc2)Oc2ccccc21 (centres unmarked) [Compound 5]
Increase in the G2/M phase cell percentage (HT-29 [1]): 25%
IC50 ([2]; Homo sapiens): 8 to 30 µM
Increase in MDC fluorescence intensity (autophagy) (HT-29 [3]): 20%
